Measurements as given in patent US20070276011A1, “Plasminogen Activator Inhibitor-1 Inhibitor” (priority 2003, published 2007).

Target: recombinant human PAI-1 (Homo sapiens, UniProt P05121)
Experiment: PAI-1 inhibitory activity, Test Method A (tPA fluorogenic substrate, Tris buffer pH8.0, 37 C)
Assay type: biochemical
Settings: for Inhibitory Ratio at 25 μM (%): 25 μM test compound, Test Method A

Chain of recombinant human PAI-1 (P05121 24-402): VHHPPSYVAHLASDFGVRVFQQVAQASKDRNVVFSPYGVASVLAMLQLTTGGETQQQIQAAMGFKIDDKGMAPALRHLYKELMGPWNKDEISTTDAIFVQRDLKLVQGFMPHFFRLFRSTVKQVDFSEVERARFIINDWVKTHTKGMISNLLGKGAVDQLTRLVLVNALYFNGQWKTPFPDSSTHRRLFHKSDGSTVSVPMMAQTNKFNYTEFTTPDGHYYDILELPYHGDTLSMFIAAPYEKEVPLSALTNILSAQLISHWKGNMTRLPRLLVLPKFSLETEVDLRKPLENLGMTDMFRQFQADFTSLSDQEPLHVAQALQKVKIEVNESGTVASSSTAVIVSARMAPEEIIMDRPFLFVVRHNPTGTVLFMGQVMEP

| Inhibitory Ratio at 25 μM (%) | IC50 (50% inhibitory concentration of PAI-1 activity, according to the aforementioned method) [µM] | Structure (SMILES) |
| --- | --- | --- |
| 95 | – | COC(=O)c1cccc(NC(=O)c2cc(C=C3SC(=O)N(Cc4ccc(Cl)c(Cl)c4)C3=O)cc(O)c2O)c1 [compound 470] |
| 96 | – | COc1ccc(OC)c(NC(=O)c2cc(C=C3SC(=O)N(Cc4ccc(Cl)c(Cl)c4)C3=O)ccc2O)c1 [compound 471] |
| 94 | – | CC(C)c1ccc(NC(=O)c2cc(C=C3SC(=O)N(Cc4ccc(Cl)c(Cl)c4)C3=O)ccc2O)c(Br)c1 [compound 472] |
| 82 | – | O=C(Nc1ccc2c(c1)OCO2)c1cc(C=C2SC(=O)N(Cc3ccc(Cl)c(Cl)c3)C2=O)cc(O)c1O [compound 474] |
| >99 | 0.81 | CC1=NN(c2cc(Cl)cc(Cl)c2)C(=O)C1=Cc1cc(O)c(O)cc1O [compound 501] |
| 66 | – | CC(C)C1=NN(c2cc(Cl)ccc2Cl)C(=O)C1=Cc1cc(O)c(O)cc1O [compound 502, 4-(2,4,5-Trihydroxybenzylidene)-1-(2,5-dichlorophenyl)-3-isopropyl-2-pyrazolin-5-one] |
| 93 | – | CC(C)C1=NN(c2cc(Cl)cc(Cl)c2)C(=O)C1=Cc1ccc(O)cc1O [compound 505] |
| 50 | – | COc1cc(OC)c(OC)cc1C=C1C(=O)N(c2cc(Cl)cc(Cl)c2)N=C1C(C)C [compound 506] |
| 26 | – | CC(C)C1=NN(c2cc(Cl)cc(Cl)c2)C(=O)C1=Cc1c[nH]cn1 [compound 508] |
| >99 | – | O=C1C(=Cc2cccc(O)c2)C(c2ccc(O)cc2)=NN1c1cc(Cl)cc(Cl)c1 [compound 509, 4-(3-Hydroxybenzylidene)-1-(3,5-dichlorophenyl)-3-(4-hydroxyphenyl)-2-pyrazolin-5-one] |
| 86 | – | O=C1C(=Cc2cc(Br)ccc2O)C(c2ccc(O)cc2)=NN1c1cc(Cl)cc(Cl)c1 [compound 510] |
| >99 | – | O=C1C(=Cc2ccc(O)cc2)C(c2ccc(O)cc2)=NN1c1cc(Cl)cc(Cl)c1 [compound 511] |
| 52 | – | CCOC(=O)CCC1=NN(c2ccccc2)C(=O)C1=Cc1ccc2c(c1)OCO2 [compound 512, 4-(3,4-Methylenedioxybenzylidene)-1-phenyl-3-[2-(ethoxycarbonyl)ethyl]-2-pyrazolin-5-one] |
| 72 | – | CCOC1=NN(c2ccc([N+](=O)[O-])cc2)C(=O)C1=Cc1cc(Br)ccc1O [compound 513] |
| 56 | – | CCOC(=O)CCC1=NN(c2ccccc2)C(=O)C1=Cc1cc(O)c(O)cc1O [compound 514] |
| 86 | – | CCOC(=O)CCCC1=NN(c2ccc(Cl)cc2)C(=O)C1=Cc1cc(Br)ccc1O [compound 516, 4-(2-Hydroxy-5-bromobenzylidene)-1-(4-chlorophenyl)-3-[3-(ethoxycarbonyl)propyl]-2-pyrazolin-5-one] |
| 83 | – | COc1ccc(O)c(C=C2C(=O)N(c3ccc(Cl)c(Cl)c3)N=C2C(C)C)c1 [compound 518, 4-(2-hydroxy-5-methoxybenzylidene)-1-(3,4-dichlorophenyl)-3-isopropyl-2-pyrazolin-5-one] |
| >99 | – | O=C1C(=Cc2cc(Br)ccc2O)C(c2ccc(O)cc2)=NN1c1ccc(Cl)cc1 [compound 520, 4-(2-Hydroxy-5-bromobenzylidene)-1-(4-chlorophenyl)-3-(4-hydroxyphenyl)-2-pyrazolin-5-one] |
| >99 | – | COCC1=NN(c2cc(Cl)cc(Cl)c2)C(=O)C1=Cc1cc(Br)ccc1O [compound 521, 4-(2-Hydroxy-5-bromobenzylidene)-1-(3,5-dichlorophenyl)-3-methoxymethyl-2-pyrazolin-5-one] |
| >99 | – | COCC1=NN(c2cc(Cl)cc(Cl)c2)C(=O)C1=Cc1cc(O)c(O)cc1O [compound 522] |
| >99 | – | COCC1=NN(c2cc(Cl)cc(Cl)c2)C(=O)C1=Cc1ccccc1O [compound 523] |
| >99 | – | COCC1=NN(c2cc(Cl)cc(Cl)c2)C(=O)C1=Cc1cc(C=Cc2ccccc2)ccc1O [compound 524] |
| >99 | – | CC(C)C1=NN(c2cc(Cl)cc(Cl)c2)C(=O)C1=Cc1cc(C=Cc2ccccc2)ccc1O [compound 525] |
| >99 | – | CC(C)C1=NN(c2cc(Cl)cc(Cl)c2)C(=O)C1=Cc1cc(Br)ccc1O [compound 526] |
| 59 | – | COCC1=NN(c2cc(Cl)cc(Cl)c2)C(=O)C1=Cc1ccc(Oc2ccccc2)cc1 [compound 527] |

| Inhibitory Ratio at 25 μM (%) | IC50 (50% inhibitory concentration of PAI-1 activity, according to the aforementioned method) [µM] | Structure (SMILES) |
| --- | --- | --- |
| >99 | – | COc1cc(Br)cc(C=C2C(=O)N(c3cc(Cl)cc(Cl)c3)N=C2C(C)C)c1O [compound 528] |
| >99 | – | CC(C)C1=NN(c2cc(Cl)cc(Cl)c2)C(=O)C1=Cc1cc(Br)cc(O)c1O [compound 529] |
| >99 | – | O=C1C(=Cc2cc(C=Cc3ccccc3)ccc2O)C(c2ccc(O)cc2)=NN1c1ccc(Cl)cc1 [compound 530] |
| 50 | – | CC(C)C1=NN(c2ccc([N+](=O)[O-])cc2)C(=O)C1=Cc1cc(C=Cc2ccccc2)ccc1O [compound 531, 4-(21-Hydroxy-5-styrylbenzylidene)-1-(4-nitrophenyl)-3-isopropyl-2-pyrazolin-5-one] |
| 78 | – | COc1ccc(C=Cc2ccccc2)cc1C=C1C(=O)N(c2ccc([N+](=O)[O-])cc2)N=C1C(C)C [compound 532, 4-(2-Methoxy-5-styrylbenzylidene)-1-(4-nitrophenyl)-3-isopropyl-2-pyrazolin-5-one] |
| >99 | – | CC1=NN(c2ccc([N+](=O)[O-])cc2)C(=O)C1=Cc1cc(C=Cc2ccccc2)ccc1O [compound 533] |
| 64 | – | CC(C)C1=NN(c2ccc(C(=O)O)cc2)C(=O)C1=Cc1cc(C=Cc2ccccc2)ccc1O [compound 534] |
| 75 | – | COc1ccc(C=Cc2ccccc2)cc1C=C1C(=O)N(c2ccc(C(=O)O)cc2)N=C1C(C)C [compound 535] |
| >99 | – | CC(C)C1=NN(c2ccc(C(=O)O)cc2)C(=O)C1=Cc1ccc(C=Cc2ccccc2)cc1 [compound 536] |
| 66 | – | CCOC1=NN(c2ccc([N+](=O)[O-])cc2)C(=O)C1=Cc1cc(C=Cc2ccccc2)ccc1OC [compound 537] |
| >99 | – | COCC1=NN(c2ccc([N+](=O)[O-])cc2)C(=O)C1=Cc1cc(C=Cc2ccccc2)ccc1O [compound 538, 4-(2-Hydroxy-5-styrylbenzylidene)-1-(4-nitrophenyl)-3-methoxymethyl-2-pyrazolin-5-one] |
| 80 | – | COc1cc(C=C2C(=O)N(c3cc(Cl)cc(Cl)c3)N=C2C(C)C)cc(Br)c1O [compound 539, 4-(3-Methoxy-4-hydroxy-5-bromobenzylidene)-1-(3,5-dichlorophenyl)-3-isopropyl-2-pyrazolin-5-one] |
| >99 | – | CC(C)C1=NN(c2cc(Cl)cc(Cl)c2)C(=O)C1=Cc1cc(O)c(O)c(Br)c1 [compound 540] |
| >99 | – | CCOC1=NN(c2ccc([N+](=O)[O-])cc2)C(=O)C1=Cc1cc(C=Cc2ccccc2)ccc1O [compound 541, 4-(2-hydroxy-5-styrylbenzylidene)-1-(4-nitrophenyl)-3-ethoxy-2-pyrazolin-5-one] |
| >99 | – | CCOC1=NN(c2ccc([N+](=O)[O-])cc2)C(=O)C1=Cc1cc(C=Cc2ccccc2)ccc1O[Si](C)(C)C(C)(C)C [compound 543] |
| 41 | – | CC(C)C1=NN(c2ccc(C=Cc3ccccn3)cc2)C(=O)C1=Cc1cc(C=Cc2ccccc2)ccc1O [compound 544, 4-(2-Hydroxy-5-styrylbenzylidene)-1-{4-[2-(pyridin-2-yl)vinyl]phenyl}-3-isopropyl-2-pyrazolin-5-one] |
| 74 | – | CC(C)C1=NN(c2ccc(C=Cc3ccccn3)cc2)C(=O)C1=Cc1cc(O)c(O)cc1O [compound 545] |
| 96 | – | CCOC1=NN(c2ccc([N+](=O)[O-])cc2)C(=O)C1=Cc1c(O)ccc2ccccc12 [compound 546] |
| 62 | – | CCOC1=NN(c2ccc([N+](=O)[O-])cc2)C(=O)C1=Cc1c2ccccc2cc2ccccc12 [compound 547] |
| 32 | – | CCOC1=NN(c2ccc([N+](=O)[O-])cc2)C(=O)C1=Cc1cc(C(C)(C)C)ccc1O [compound 548] |
| 66 | – | CCOC1=NN(c2ccc([N+](=O)[O-])cc2)C(=O)C1=Cc1c(O)cccc1OC [compound 550, 4-(2-hydroxy-6-methoxybenzylidene)-1-(4-nitrophenyl)-3-ethoxy-2-pyrazolin-5-one] |
| 75 | – | CCOC1=NN(c2ccc([N+](=O)[O-])cc2)C(=O)C1=Cc1c(Br)ccc(O)c1O [compound 551] |
| 95 | – | CCOC1=NN(c2ccc([N+](=O)[O-])cc2)C(=O)C1=Cc1c(O)cccc1O [compound 552] |
| >99 | – | CC(C)C1=NN(Cc2ccc(Cl)c(Cl)c2)C(=O)C1=Cc1cc(O)c(O)cc1O.N=C(N)NCCC[C@H](N)C(=O)O.N=C(N)NCCC[C@H](N)C(=O)O.N=C(N)NCCC[C@H](N)C(=O)O [compound 553, tri(L-(+)-arginine) salt of 4-(2,4,5-trihydroxybenzylidene)-1-(3,4-dichlorobenzyl)-3-isopropyl-2-pyrazolin-5-one] |

| Structure (SMILES) | Inhibitory Ratio at 25 μM (%) | IC50 (50% inhibitory concentration of PAI-1 activity, according to the aforementioned method) [µM] |
| --- | --- | --- |
| COc1ccc(C(C)(C)C)cc1NC(=O)c1cc(C=C2SC(=O)N(Cc3ccc(Cl)c(Cl)c3)C2=O)ccc1O [compound 467] | >99 | – |
| COc1ccc(C(F)(F)F)cc1NC(=O)c1cc(C=C2SC(=O)N(Cc3ccc(Cl)c(Cl)c3)C2=O)ccc1O [compound 468] | >99 | – |
| O=C(Nc1cc(C(F)(F)F)ccc1Cl)c1cc(C=C2SC(=O)N(Cc3ccc(Cl)c(Cl)c3)C2=O)cc(O)c1O [compound 469] | >99 | – |
| CC(C)C1=NN(c2ccc(Cl)c(Cl)c2)C(=O)C1=Cc1cc(O)ccc1O [compound 519] | 80 | – |
